Assay results as given in patent US8003812B2, “C10 cyclopentyl ester substituted taxanes” (priority 2004, dated 2011).
Values joined by “and” are separate entries in the source; they are usually repeats but may differ in a detail not shown here. Equal entries are not always repeated. Where two headings read alike, the source gives them in different places.

Experiments:
[1] = test system: Sprague-Dawley rats; assay: In vivo toxicity assessment in rats, oral; set-up: species or system rat; key to Neu Tox score: N (0); −10: Y (1-4); key to PTL R (Recovery) score / L/W Dia score / B/M Dia score / BW R (Recovery) score / WBC R (Recovery) score: −5: N; 0: Y; conditions: oral, Mid Dose 30 mg/kg, score per rat
Description: Toxicity was assessed in 250-300g Sprague-Dawley rats and three rats were used per dose group. Three dose groups of the test compound, (i.e., 3 mg/kg, 9 mg/kg and 12 mg/kg for intravenous administration; 15 mg/kg, 30 mg/kg and 40 mg/kg) and 1 control group constituted a study. Animals were observed and clinical chemistry data collected at days 4 and 10. Rats were euthanized on day 11 and the nerves were excised and fixed upon euthanization for further examination.
Each rat is scored as described below and a final toxicity score that incorporates all parameters is assigned. A dead rat is assigned a score of zero. Most of the parameters contribute a positive value towards a total possible score of 130. For body weight, white blood cell, and platelet decreases, recovery is considered. […] The total score is divided by 13 to put it on a scale from 0 to 10.

[2] = test system: human pancreatic tumor xenograft Panc-1; conditions: for Efficacy Score = 10*(TWd1−TWdn)/TWd1: single dose IV
Description: [formula] where TTE is expressed in days, endpoint volume is in mm^3, b is the intercept, and m is the slope of the line obtained by linear regression of a log-transformed tumor growth data set. The data set is comprised of the first observation that exceeded the study endpoint volume and the three consecutive observations that immediately preceded the attainment of the endpoint volume. […] Animals classified as TR (treatment-related) deaths or NTRM (non-treatment-related metastasis) deaths are assigned a TTE value equal to the day of death. Animals classified as NTR (non-treatment-related) deaths are excluded from TTE calculations. Treatment efficacy was determined from tumor growth delay (TGD), which is defined as the increase in the median TTE for a treatment group compared to the control group: TGD=T−C, expressed in days, or as a percentage of the median TTE of the control group:
Treatment may cause partial regression (PR) or complete regression (CR) of the tumor in an animal. In a PR response, the tumor volume is 50% or less of its Day 1 volume for three consecutive measurements during the course of the study, and equal to or greater than 13.5 mm^3 for one or more of these three measurements. In a CR response, the tumor volume is less than 13.5 mm^3 for three consecutive measurements during the course of the study. An animal with a CR response at the termination of a study is additionally classified as a long-term tumor-free survivor (LTTFS).
With respect to toxicity, the animals were weighed daily on Days 1-5, then twice weekly until the completion of the study. The mice were examined frequently for overt signs of any adverse, drug-related side effects. […] The log rank test was employed to analyze the significance of the difference between the TTE values of a drug-treated group and the vehicle-treated control group. The log rank test analyzes the data for all animals except the NTR deaths. The two-tailed statistical analyses were conducted at P=0.05. The group median tumor growth curves show the median tumor volume (MTV) as a function of time. When an animal exited the study due to tumor size or TR death, the final tumor volume recorded for the animal was included with the data used to calculate the median volume at subsequent time points. If more than one death occurred in a treatment group, the tumor growth curve for that group was truncated at the time of the second death.
Human Panc-1 pancreatic carcinomas were maintained in athymic nude mice. A tumor fragment (1 mm^3) was implanted s.c. into the right flank of each test mouse. Tumors were monitored twice weekly and then daily as their size approached 200-400 mm^3 with a mean of 250-300 mm^3. On Day 1 of the study, the animals were sorted into groups of six mice, with tumor sizes of 171.5-486.0 mm^3 and group mean tumor sizes of 269.7-275.0 mm^3. Mice were sorted into groups containing six mice each, and treated according to the protocol in Tables 2A and 2B. All treatments were administered intravenously. Control Group 1 mice received the ethanol 5% and Liposyn II 95% vehicle, once on Day 1 (qd×1). […] Dosing volumes were 0.5 ml/20 g body weight for qd×1 dosing regimens and 0.3 mL/20 g body weight for the qod×5 or q4d×4 dosing schedules. Dosing volumes were scaled to the body weight of each animal. The vehicle was given to Group 1 mice in a single dose on Day 1 (qd×1).

[3] = test system: HT29 (human colon carcinoma) xenograft; conditions: for # Death NTR / # Death TR / MDS to 1.0 g ± SEM (n) / Efficacy Score = 10*(TWd1−TWdn)/TWd1: HT29; for # Death NTR / # Death TR: 6 mice; for Efficacy Score = 10*(TWd1−TWdn)/TWd1: best score 10; for Max. % BW Loss; Day: mouse, in vivo, po
Description: Score=10*(TWd1−TWdn)/TWd1, where
TWd1=tumor weight on day 1
TWDn=lowest tumor weight on day 10 or later
Thus the best score for complete regression would be 10.

[4] = Group 2: 20 mg/kg IV qod × 5, 6 mice
[5] = Group 3: 30 mg/kg IV q4d × 4, 6 mice
[6] = Group 4: 120 mg/kg IV qd × 1, 6 mice
[7] = Group 5: 60 mg/kg IV qd × 5 (Table 2A), 6 mice

CC(=O)OC12COC1CC(O)C1(C)C(=O)C(OC(=O)C3CCCC3)C3=C(C)C(OC(=O)C(O)C(NC(=O)OC(C)C)c4cccs4)CC(O)(C(OC(=O)c4ccccc4)C21)C3(C)C (stereo not shown) [Compound 9091]
Neu Tox score [1]: −10
PTL R (Recovery) score [1]: 0
PTL score [1]: 20 (<25%)
WBC R (Recovery) score [1]: 0
BW score ([1]; 30 mg/kg): 5 (≧15%) and 10 (≧10%) (2×)
WBC score ([1]; 30 mg/kg): 0 (≧50%) (2×) and 5 (≧25%)
antitumor effectiveness among IV regimens ([2]; 30 mg/kg q4d×4 IV regimen): most effective
No. of CR [2, 4]: 0
No. of LTTES [2, 4]: 0
No. of NTR [2, 4]: 0
No. of PR [2, 4]: 1
No. of TR [2, 4]: 5
Max % BW Loss; Day ([2]; Group 2: 20 mg/kg IV qod × 5, Day 10): −15.7%;
Tumor Burden Median (n), Day 56 ([2]; Group 2: 20 mg/kg IV qod × 5, n=1): 108 (1) mm^3
Median TTE ([2]; Group 2: 20 mg/kg IV qod × 5, not evaluable for efficacy (five TR deaths)): 10.0 days
T − C ([2]; Group 3: 30 mg/kg IV q4d × 4): 40.2 days
% TGD ([2]; Group 3: 30 mg/kg IV q4d × 4, 30 mg/kg): 254%
No. of CR [2, 5]: 1
No. of LTTES [2, 5]: 1
No. of NTR [2, 5]: 0
No. of PR [2, 5]: 5
No. of TR [2, 5]: 0
Tumor Burden Median (n), Day 56 (MTV) ([2]; Group 3: 30 mg/kg IV q4d × 4, Day 56): 40 mm^3
Tumor Burden Median (n), Day 56 (MTV) ([2]; Group 3: 30 mg/kg IV q4d × 4, Day 56, 30 mg/kg): 40.25 (6) mm^3
Median TTE ([2]; Group 3: 30 mg/kg IV q4d × 4, endpoint 1200 mg): 56.0 days
T − C ([2]; Group 4: 120 mg/kg IV qd × 1): 40.2 days
% TGD ([2]; Group 4: 120 mg/kg IV qd × 1, 120 mg/kg): 254%
No. of CR [2, 6]: 0
No. of LTTES [2, 6]: 0
No. of NTR [2, 6]: 2
No. of PR [2, 6]: 6
No. of TR [2, 6]: 0
Tumor Burden Median (n), Day 56 (MTV) ([2]; Group 4: 120 mg/kg IV qd × 1, Day 56, 120 mg/kg): 58 mm^3 and 57.5 (6) mm^3
Median TTE ([2]; Group 4: 120 mg/kg IV qd × 1, endpoint 1200 mg): 56.0 days
T − C ([2]; Group 5: 60 mg/kg IV qd × 5 (Table 2A)): 40.2 days
% TGD ([2]; Group 5: 60 mg/kg IV qd × 5 (Table 2A), 60 mg/kg): 254%
No. of CR [2, 7]: 0
No. of LTTES [2, 7]: 0
No. of NTR [2, 7]: 0
No. of PR [2, 7]: 6
No. of TR [2, 7]: 0
Tumor Burden Median (n), Day 56 (MTV) ([2]; Group 5: 60 mg/kg IV qd × 5 (Table 2A), Day 56, 60 mg/kg): 126 mm^3 and 126 (6) mm^3
Median TTE ([2]; Group 5: 60 mg/kg IV qd × 5 (Table 2A), endpoint 1200 mg): 56.0 days
end-of-study survivors ([2]; each of 30 mg/kg q4d×4, 120 mg/kg and 60 mg/kg single dose IV, 6 mice per group): six
Efficacy Score = 10*(TWd1−TWdn)/TWd1 ([2]; Dose 60, best score 10): 7.7
Efficacy Score = 10*(TWd1−TWdn)/TWd1 ([2]; Dose 120, best score 10): 8.6
# Death NTR ([3]; Group 18: 15 mg/kg po q4d × 4): 0
# Death TR ([3]; Group 18: 15 mg/kg po q4d × 4): 0
MDS to 1.0 g ± SEM (n) ([3]; Group 18: 15 mg/kg po q4d × 4, n=6): 24.4 ± 1.4 (6)
# Death NTR ([3]; Group 19: 30 mg/kg po q4d × 4): 0
# Death TR ([3]; Group 19: 30 mg/kg po q4d × 4): 0
MDS to 1.0 g ± SEM (n) ([3]; Group 19: 30 mg/kg po q4d × 4, n=1): 25.6 ± (1)
# Death NTR ([3]; Group 20: 45 mg/kg po q4d × 4): 0
# Death TR ([3]; Group 20: 45 mg/kg po q4d × 4): 0
# Death NTR ([3]; Group 21: 60 mg/kg po q4d × 4): 0
# Death TR ([3]; Group 21: 60 mg/kg po q4d × 4): 4
Efficacy Score = 10*(TWd1−TWdn)/TWd1 ([3]; single dose oral 60 mg/kg): 4.3
Efficacy Score = 10*(TWd1−TWdn)/TWd1 ([3]; single dose oral 120 mg/kg): 8.7
Max. % BW Loss; Day ([3]; 30 mg/kg): −11.3%;
Max. % BW Loss; Day ([3]; 45 mg/kg): −22.6%;
Max. % BW Loss; Day ([3]; 60 mg/kg): −28.1%;
